Experiments:
Test in all cases: Bliss excess, mean over the matrix (fraction); higher = more synergy
TK10 (Kidney Carcinoma) = test system: TK10 (Kidney Carcinoma)
Procedure, shortened: (§1)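 Cell lines in DMEM/F12 or RPMI with 10% FBS were plated in 1536-well plates, held 24 hours at 37°C, 5% CO2, then given two-drug dose matrices for 72 hours (DMSO typically 0.2%). Viability was read by CellTiter-Glo 2.0 luminescence and scaled as inhibition from 0 (vehicle wells) to 1 (blank wells). Combination Emax is the second-highest inhibition in the matrix; Bliss excess is observed combination effect minus expected EA + EB − EA·EB, EA and EB being single-agent effects.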

[1] = test system: BT-549 (Breast Carcinoma)
Procedure, shortened: as §1

[2] = test system: Caov-4 (Ovarian Carcinoma)
Procedure, shortened: as §1

[3] = test system: SW13 (Other Solid Carcinomas)
Procedure, shortened: as §1

[4] = test system: AMO-1 (Plasma Cell Myeloma)
Procedure, shortened: as §1

[5] = test system: Hs-766T (Pancreatic Carcinoma)
Procedure, shortened: as §1

[6] = test system: MLMA (Other Blood Carcinomas)
Procedure, shortened: as §1

[7] = test system: RF-48 (B-Cell Non-Hodgkin's Lymphoma)
Procedure, shortened: as §1

[8] = test system: MIA-PaCa-2 (Pancreatic Carcinoma)
Procedure, shortened: as §1

[9] = test system: LU-65 (Non-Small Cell Lung Carcinoma)
Procedure, shortened: as §1

[10] = test system: NCI-H358 (Lung Adenocarcinoma)
Procedure, shortened: as §1

[11] = test system: KYSE-450 (Esophageal Squamous Cell Carcinoma)
Procedure, shortened: as §1

TGW (Neuroblastoma) = test system: TGW (Neuroblastoma)
Procedure, shortened: as §1

D-263MG (Glioblastoma) = test system: D-263MG (Glioblastoma)
Procedure, shortened: as §1

[12] = test system: PANC-04-03 (Pancreatic Carcinoma)
Procedure, shortened: as §1

[13] = test system: Ca9-22 (Head and Neck Carcinoma)
Procedure, shortened: as §1

UACC-62 (Melanoma) = test system: UACC-62 (Melanoma)
Procedure, shortened: as §1

[14] = test system: EFM-19 (Breast Carcinoma)
Procedure, shortened: as §1

[15] = test system: EoL-1-cell (Acute Myeloid Leukemia)
Procedure, shortened: as §1

EW-24 (Ewing's Sarcoma) = test system: EW-24 (Ewing's Sarcoma)
Procedure, shortened: as §1

| Compound | Bliss excess (TK10 (Kidney Carcinoma)) | Bliss excess [1] | Bliss excess [2] | Bliss excess [3] | Bliss excess [4] | Bliss excess [5] | Bliss excess [6] | Bliss excess [7] | Bliss excess [8] | Bliss excess [9] | Bliss excess [10] | Bliss excess [11] | Bliss excess (TGW (Neuroblastoma)) | Bliss excess (D-263MG (Glioblastoma)) | Bliss excess [12] | Bliss excess [13] | Bliss excess (UACC-62 (Melanoma)) | Bliss excess [14] | Bliss excess [15] | Bliss excess (EW-24 (Ewing's Sarcoma)) |
| --- | --- | --- | --- | --- | --- | --- | --- | --- | --- | --- | --- | --- | --- | --- | --- | --- | --- | --- | --- | --- |
| Cc1cc2ncnn2cc1Nc1ncc2c(n1)n(C1CCOCC1)c(=O)n2C [AZD7648] + C[C@@H]1COCCN1C2=NC(=NC(=C2)C3(CC3)[S@](=N)(=O)C)C4=C5C=CNC5=NC=C4 [AZD6738] (first compound max 10 µM, 7x7, partner max 10 µM) | 0.0062 | 0.0207 | 0.0087 | 0.0707 | -0.0184 | 0.0552 | -0.0289 | 0.0071 | -0.0254 | -0.0392 | 0.0099 | 0.0281 | 0.0388 | -0.0206 | 0.0123 | 0.0578 | 0.0529 | 0.0323 | -0.0123 | -0.0023 |
| Cc1cc2ncnn2cc1Nc1ncc2c(n1)n(C1CCOCC1)c(=O)n2C [AZD7648] + O=C(c1cc(Cc2n[nH]c(=O)c3ccccc23)ccc1F)N1CCN(C(=O)C2CC2)CC1 [Olaparib] (first compound max 10 µM, 7x7, partner max 10 µM) | -0.0843 | -0.0487 | -0.015 | -0.0454 | -0.0231 | -0.0491 | -0.0087 | 0.0158 | -0.0246 | -0.0146 | -0.0179 | -0.0635 | -0.0248 | -0.0367 | -0.0369 | -0.0072 | -0.0219 | -0.0652 | 0.0142 | -0.0449 |
| Cc1nc(Nc2ncc(C(=O)Nc3c(C)cccc3Cl)s2)cc(N2CCN(CCO)CC2)n1 [Dasatinib] + CC(=O)Nc1cccc(-n2c(=O)n(C3CC3)c(=O)c3c(Nc4ccc(I)cc4F)n(C)c(=O)c(C)c32)c1 [Trametinib] (first compound max 2 µM, 7x7, partner max 1 µM) | 0.0159 | -0.0945 | -0.125 | -0.0548 | 0.058 | 0.0971 | -0.0324 | -0.0369 | 0.156 | -0.112 | 0.004 | -0.0101 | -0.0621 | -0.031 | 0.0163 | 0.0313 | 0.0064 | -0.0957 | -0.0157 | -0.0569 |
| COc1cc2ncnc(Nc3ccc(F)c(Cl)c3)c2cc1OCCCN1CCOCC1 [Gefitinib] + CC(C)n1c(=O)n(C)c2cnc3cc(F)c(-c4ccc(OCCCN5CCCCC5)nc4)cc3c21 [AZD1390] (first compound max 10 µM, 7x7, partner max 0.3 µM) | -0.0646 | -0.0549 | -0.0591 | -0.0233 | -0.0485 | -0.0908 | -0.0358 | -0.0283 | -0.0307 | -0.0614 | -0.0493 | -0.0177 | -0.0438 | -0.0401 | -0.0853 | 0.0579 | -0.0358 | -0.0722 | -0.0385 | -0.0759 |
| COc1cc2c(cc1OCCCCCOc1cc3c(cc1OC)C(=O)N1C=C(C)C[C@H]1C=N3)N=C[C@@H]1CC(C)=CN1C2=O [SG3199] + O=C(c1cc(Cc2n[nH]c(=O)c3ccccc23)ccc1F)N1CCN(C(=O)C2CC2)CC1 [Olaparib] (first compound max 0.001 µM, 7x7, partner max 10 µM) | -0.0646 | -0.041 | -0.0267 | -0.0184 | -0.0342 | -0.0433 | -0.0269 | 0.0133 | -0.0415 | 0.0047 | -0.0353 | -0.041 | -0.0446 | -0.018 | -0.046 | -0.0113 | -0.0663 | -0.063 | -0.0348 | -0.0272 |
| N#Cc1cnc(Nc2cc(NC[C@H]3CNCCO3)c(C(F)(F)F)cn2)cn1 [SRA737] + C=CCn1c(=O)c2cnc(Nc3ccc(N4CCN(C)CC4)cc3)nc2n1-c1cccc(C(C)(C)O)n1 [AZD1775] (first compound max 10 µM, partner max 1 µM) | 0.0566 | 0.0819 | 0.0532 | 0.0091 | 0.0986 | 0.0161 | -0.0114 | -0.0171 | 0.139 | 0.0233 | -0.0155 | 0.119 | -0.0382 | 0.0096 | 0.0182 | 0.154 | 0.0048 | -0.044 | -0.0097 | 0.0488 |
| N#Cc1cnc(Nc2cc(NC[C@H]3CNCCO3)c(C(F)(F)F)cn2)cn1 [SRA737] + CCc1c2c(nc3ccc(O)cc13)-c1cc3c(c(=O)n1C2)COC(=O)[C@]3(O)CC [SN-38] (first compound max 10 µM, 7x7, partner max 0.3 µM) | 0.0241 | -0.0463 | -0.0488 | -0.0192 | -0.0225 | -0.0095 | -0.061 | -0.0047 | 0.0599 | -0.0191 | 0.0057 | 0.157 | 0.0191 | 0.0777 | -0.0583 | 0.0252 | 0.0364 | 0.107 | -0.0375 | -0.0859 |
| N#Cc1cnc(Nc2cc(NC[C@H]3CNCCO3)c(C(F)(F)F)cn2)cn1 [SRA737] + Nc1ccn([C@@H]2O[C@H](CO)[C@@H](O)C2(F)F)c(=O)n1 [Gemcitabine] (first compound max 10 µM, 7x7, partner max 0.3 µM) | -0.0589 | -0.0532 | 0.0158 | 0.0367 | 0.0377 | 0.003 | -0.0924 | 0.0451 | 0.124 | 0.0224 | -0.0054 | 0.114 | -0.0301 | 0.0556 | -0.0036 | 0.122 | 0.019 | 0.0489 | 0.0316 | -0.0984 |
| N#Cc1cnc(Nc2cc(NC[C@H]3CNCCO3)c(C(F)(F)F)cn2)cn1 [SRA737] + O=c1[nH]cc(F)c(=O)[nH]1 [5-Fluorouracil] (first compound max 10 µM, 7x7, partner max 20 µM) | -0.0549 | 0.0358 | -0.0494 | -0.026 | -0.0004 | 0.0415 | -0.0455 | -0.0095 | -0.0352 | 0.0104 | -0.0743 | -0.0348 | -0.0389 | -0.0456 | 0.0102 | 0.0135 | -0.0561 | 0.0189 | -0.0084 | 0.0101 |
| C[C@@H](c1ccc2nccn2c1)n1nnc2ncc(-c3cnn(C)c3)nc21 [Savolitinib] + CC1(C)CCC(CN2CCN(c3ccc(C(=O)NS(=O)(=O)c4ccc(NCC5CCOCC5)c([N+](=O)[O-])c4)c(Oc4cnc5[nH]ccc5c4)c3)CC2)=C(c2ccc(Cl)cc2)C1 [Venetoclax] (first compound max 1 µM, 7x7, partner max 1 µM) | -0.0568 | -0.0439 | -0.0839 | -0.0363 | 0.0036 | -0.0681 | -0.022 | -0.0502 | -0.0355 | -0.0738 | -0.0564 | -0.0471 | -0.0486 | -0.0797 | -0.0736 | -0.0231 | -0.0111 | -0.0273 | 0.0273 | -0.0739 |
| C[C@@H](c1ccc2nccn2c1)n1nnc2ncc(-c3cnn(C)c3)nc21 [Savolitinib] + Cc1c2c(nn1C)CSCc1cc(n(C)n1)CSc1cc(c3ccccc3c1)OCCCc1c(C(=O)O)n(C)c3c-2c(Cl)ccc13 [AZD5991] (first compound max 1 µM, 7x7, partner max 1 µM) | -0.0486 | -0.0229 | -0.011 | -0.0541 | 0.0251 | -0.0404 | -0.0122 | -0.029 | -0.007 | -0.0437 | -0.0538 | -0.0186 | -0.0467 | -0.0571 | -0.0216 | -0.01 | 0.0285 | -0.0236 | 0.0703 | -0.0237 |
